The results in this text go back to patent US11510890B2, “Meroterpenoid compounds for use in the prevention and treatment of a neurological disorder” (SOCIETE DES PRODUITS NESTLE S.A., priority 2017, dated 2022).

In assay [1] the test system is human iPSc derived into cardiomyocyte (iCell Cardiomyocytes). The experiment in a line: Toxicity - ATP content (CellTiter-Glo). The class given is cell-based. The method, then:
(§1) Differentiated human iPSCs (iCell astrocytes, and iCell cardiomyocytes) were obtained from Cellular Dynamics International (CDI, Madison, Wis., USA). iCell astrocytes were cultured in DMEM supplemented with 10% fetal calf serum and N2 complement. iCell cardiomyocytes were maintained in a medium supplied by CDI. Cell cultures were kept in a humidified atmosphere (5% CO2) at 37° C.
iCell Cardiomyocytes were seeded in 384-well plates. Eight days later cells were treated for 24 hours with compounds. Cell viability was determined by the quantification of intracellular ATP after cell lysis. ATP was used as an indicator of metabolically active cells. ATP was measured using a luminescent cell viability assay (CellTiter-Glo®; […]). Luminescence was measured after 20 min in a Bioteck Synergie Neo multimode reader.
Toxicity of the meroterpenoid compounds were evaluated in human IPS cell derived cardiomyocytes by measuring total ATP in cell lysates.
Dose response of compounds on human iPSc derived into cardiomyocyte with evaluation of the ATP level using cell titer glow. Results were normalized between untreated cells (100%) and positive control (0%).
(§2) The toxicity expressed in log IC50 (ATP content after 24 hours compound treatment on human iPSc derived into cardiomyocyte) was compared against the lactate release in log EC50 (lactate secretion after 2 hours compound treatment in human iPSc derived into astrocytes).
Background: ATP-based viability assays read luminescence as a measure of living cells.

Assay [2] concerns CCF-STTG1. The experiment in a line: Lactate release orthogonal assay (spectrophotometric enzymatic assay). The format is cell-based, human. To be noted: CCF-STTG1, supernatants after 2 hours, colorimetric kit. As for the experimental part:
CCF-STTG1 were seeded in 384-well plates. Two days later, the cells were washed 3 times and incubated 30 min in Krebs-Ringer bicarbonate HEPES (KRBH) buffer containing (in mM): 140 NaCl, 3.6 KCl, 0.5 NaH2PO4, 0.5 MgSO4, 1.5 CaCl2, 10 HEPES, 5 NaHCO3 (pH7.4) supplemented with 2.5 mM glucose. The cells were maintained in the buffer in the presence of tested compounds. Supernatants were collected after 2 hours and assessed for lactate concentration. Lactate concentration in the supernatant was determined by a spectrophotometric enzymatic assay (lactate colorimetric assay kit II no. K627; BioVision, Milpitas, Calif. USA). In this kit, lactate is oxidized by lactate dehydrogenase to generate a product which interacts with a probe to produce a color (λmax=450 nm).
Absorbance was measure after 30 min at 450 nm using Bioteck Synergie Neo multimode reader. Background absorbance obtained in the absence of kit was subtracted from each value.
The stimulation of lactate secretion after treatment with meroterpenoid compounds was confirmed in an orthogonal assay based on another enzyme to measure lactate. The results of the lactate release measurement during the drug discovery screen for each compound and the results of lactate release measure with the orthogonal assay were correlated.

Assay [3] has as its system Human astrocytoma cell line CCF-STTG1. The experiment in a line: Lactate release screening assay (fluorescent enzymatic assay). The settings on record: for Primary screen %: CCF-STTG1, supernatants after 2 hours. The format is cell-based. The method, then: Human astrocytoma cell line CCF-STTG1 was cultured at 37° C. in a humidified atmosphere (5% CO2) in RPMI-1640 medium supplemented with 10% (v/v) heat-inactivated fetal calf serum, 50 μg/ml penicillin and 100 μg/ml streptomycin.
CCF-STTG1 were seeded in 384-well plates. Two days later, the cells were washed 3 times and incubated 30 min in Krebs-Ringer bicarbonate HEPES (KRBH) buffer containing (in mM): 140 NaCl, 3.6 KCl, 0.5 NaH2PO4, 0.5 MgSO4, 1.5 CaCl2, 10 HEPES, 5 NaHCO3 (pH7.4) supplemented with 2.5 mM glucose. Then, the cells were maintained in the buffer in the presence of tested compounds. Supernatants were collected after 2 hours and were assessed for lactate concentration. Lactate concentration in the supernatants were determined by fluorescent enzymatic assay. Samples were diluted in assay reagent containing (in mM or U/ml)): 100 sodium phosphate (pH7.5), 0.1 EDTA, 0.05 Amplex UltraRed, 0.1 Lactate oxidase, 1.5 Horseradish Peroxidase.
Fluorescence emission was measured at 600 nm after an excitation at 500 nm using Bioteck Synergie Neo multimode reader after 30 min at room temperature protected from direct light.

Assay [4] relates to human iPSc derived into astrocyte (iCell astrocytes). The experiment in a line: Lactate release dose response in human iPSc derived astrocytes. The class given is cell-based. As for the experimental part: Dose response curves were established for compounds identified in the screen to stimulate lactate secretion. The EC50 values for the stimulation of lactate secretion were determined using primary human IPS cell derived astrocytes.
as §1
Dose response of compounds on lactate release from human iPSc derived into astrocyte fitted with a log (agonist) vs. response variable slope to extract […] (EC50). Mean±SEM in duplicate.
as §2

Setting [5] is: ATP content after 24 hours compound treatment, read-out: Cardiomyocytes Toxicity IC50.
Where [6] appears, read: log of IC50 in M, given negative, ATP content after 24 hours.
Where [7] appears, read: lactate secretion after 2 hours compound treatment, read-out: Astrocytes Lactate release EC50.
Setting [8] is: log of EC50 in M, given negative, 2 hours compound treatment.

Like-named read-outs stand apart in the source and are kept apart here.

For the molecule `C/C(=C\Cc1c(O)c(Cl)c(C)c(C=O)c1O)CC[C@@]1(C)[C@H](C)CCC(=O)[C@@H]1C` [22562-67-0, Ilicicolin C], in assay [1] (setting [5]), the 50% inhibitory concentration (IC50) (commonly the concentration needed to halve the response being measured) was 71 µM. Moreover, the “Cardiomyocytes Toxicity log IC50” value in assay [1] (setting [6]) is recorded as −4.2. Further, in assay [2], the Orthogonal assay % is listed as 84%. Also, in assay [3], the Primary screen % stood at 70% and the Reconfirmation % amounted to 74%. In addition, the EC50 in assay [4] (setting [7]) turned out to be 0.15 µM. The “Astrocytes Lactate release logEC50” value in assay [4] (setting [8]) was −6.8.
With `C/C(=C\Cc1c(O)cc(C)c(C=O)c1O)CC[C@@]1(C)[C@H](C)CCC(=O)[C@@H]1C` [22562-68-1, Antibiotic LL-Z 1272ε], the half-inhibitory concentration (IC50) in assay [1] (setting [5]) turned out to be 81 µM. For the same molecule, the “Cardiomyocytes Toxicity log IC50” value in assay [1] (setting [6]) is −4.1. The Orthogonal assay % in assay [2] is reported as 68%. Also, in assay [3], the Primary screen % is 72% and the Reconfirmation % was found to be 83%. In addition, the EC50 in assay [4] (setting [7]) was 2.6 µM. The “Astrocytes Lactate release logEC50” value in assay [4] (setting [8]) is −5.6.
On to `CC(/C=C/C1(C)C(C)C=CC(=O)C1C)=C\Cc1c(O)c(Cl)c(C)c(C=O)c1O` (stereo not drawn) [22581-11-9], for which the IC50 in assay [1] (setting [5]) came out at 3.2 µM. Also, in assay [1] (setting [6]), the “Cardiomyocytes Toxicity log IC50” value is reported as −5.5. Besides, the Orthogonal assay % in assay [2] came to 61%. In assay [3], the Primary screen % stood at 68% and the Reconfirmation % is 50%. Also, the EC50 in assay [4] (setting [7]) came out at 0.014 µM. The “Astrocytes Lactate release logEC50” value in assay [4] (setting [8]) is −7.9.
With `CC(/C=C/[C@@]1(C)[C@H](C)CCC(=O)[C@@H]1C)=C\Cc1c(O)c(Cl)c(C)c(C=O)c1O` [26166-39-2, Ascochlorin], the IC50 in assay [1] (Homo sapiens, iPSC, ATP content after 24 hours compound treatment, read-out: Cardiomyocytes Toxicity IC50) is 1.2 µM; in assay [1] (Homo sapiens, iPSC, log of IC50 in M, given negative, ATP content after 24 hours, read-out: Cardiomyocytes Toxicity log IC50 (converted)) it was 1.26 µM. Moreover, the EC50 is 0.011 µM in assay [4] (Homo sapiens, iPSC, lactate secretion after 2 hours compound treatment, read-out: Astrocytes Lactate release EC50) and 0.0126 µM in assay [4] (Homo sapiens, iPSC, log of EC50 in M, given negative, 2 hours compound treatment, read-out: Astrocytes Lactate release logEC50 (converted)).
As for `CC(=O)OC(C[C@@]1(C)[C@H](C)CCC(=O)[C@@H]1C)/C(C)=C/Cc1c(O)c(Cl)c(C)c(C=O)c1O` (stereo partly drawn) [38965-84-3, Chloronectrin], in assay [1] (setting [5]), the 50% inhibitory concentration (IC50) worked out at 30 µM. In addition, in assay [1] (setting [6]), the “Cardiomyocytes Toxicity log IC50” value is given as −4.5. In assay [2], the Orthogonal assay % was determined as 68%. In assay [3], the Primary screen % is 104% and the Reconfirmation % came out at 97%.
Turning to `CC(C)=CCC/C(C)=C/Cc1c(O)cc(CCc2ccccc2)c(C(=O)O)c1O` [73436-04-1, 4-O-Demethylamorfrutin B], the Orthogonal assay % in assay [2] amounted to 68%. Further, in assay [3], the Primary screen % turned out to be 82% and the Reconfirmation % was found to be 77%. Moreover, in assay [4] (setting [7]), the EC50 stood at 10 µM. The “Astrocytes Lactate release logEC50” value in assay [4] (setting [8]) is −5.0.
For `COc1cc(CCc2ccccc2)c(C(=O)O)c(O)c1CC=C(C)C` [80489-90-3, Amorfrutin], the half-inhibitory concentration (IC50) in assay [1] (setting [5]) amounted to 47 µM. Besides, the “Cardiomyocytes Toxicity log IC50” value in assay [1] (setting [6]) was −4.3. In assay [2], the Orthogonal assay % turned out to be 80%. Moreover, in assay [3], the Primary screen % is 85% and the Reconfirmation % was 122%. Further, the EC50 in assay [4] (setting [7]) was 3.2 µM. For the same molecule, the “Astrocytes Lactate release logEC50” value in assay [4] (setting [8]) is listed as −5.5.
For the molecule `CC(/C=C/[C@@]1(C)[C@H](C)CCC(=O)[C@@H]1C)=C\Cc1c(O)cc(C)c(C=O)c1O` [165187-16-6, Cylindrol B], the IC50 in assay [1] (setting [5]) came out at 31 µM. The “Cardiomyocytes Toxicity log IC50” value in assay [1] (setting [6]) is on record as −4.5. In addition, the Orthogonal assay % in assay [2] amounted to 67%. In assay [3], the Primary screen % is 100% and the Reconfirmation % is 61%. Moreover, the EC50 in assay [4] (setting [7]) turned out to be 6.7 µM. Moreover, the “Astrocytes Lactate release logEC50” value in assay [4] (setting [8]) is listed as −5.2.
With Ilicicolin F [22738-98-3], the IC50 in assay [1] (setting [5]) turned out to be 7 µM. The “Cardiomyocytes Toxicity log IC50” value in assay [1] (setting [6]) is −5.2. In addition, the Orthogonal assay % in assay [2] stood at 119%. Also, in assay [3], the Primary screen % is recorded as 96% and the Reconfirmation % is reported as 142%. For the same molecule, in assay [4] (setting [7]), the EC50 is 0.027 µM. The “Astrocytes Lactate release logEC50” value in assay [4] (setting [8]) is reported as −7.6.
Consider Lasalocid [25999-31-9], for which the IC50 in assay [1] (setting [5]) was determined as 11 µM. The “Cardiomyocytes Toxicity log IC50” value in assay [1] (setting [6]) is given as −4.9. In addition, the Orthogonal assay % in assay [2] is given as 53%. Moreover, in assay [3], the Primary screen % is 88% and the Reconfirmation % is 73%. Also, in assay [4] (setting [7]), the EC50 amounted to 4.4 µM. In addition, the “Astrocytes Lactate release logEC50” value in assay [4] (setting [8]) is on record as −5.4.
